Measurements reported in US9090617B1, “Agonists of Src homology-2 containing protein tyrosine phosphatase-1 and treatment methods using the same” (National Taiwan University, priority 2011, dated 2015).
“Also recorded” adds a separate entry of the source.

Legend:
SHP-1 [1] = molecular target: T1, SHP-1 (Homo sapiens, UniProt P29350); experiment: Phosphatase activity of recombinant SHP-1; assay type: biochemical; conditions: 25 ng protein, 30 minutes
Experimental: RediPlate 96 EnzChek Tyrosine Phosphatase Assay kit (R-22067) was used for SHP-1 activity assay (Molecular Probes). Recombinant SHP-1 protein (25 ng) was incubated with either SC-43 or SC-40 at the indicated dose for 30 minutes and then analyzed by SHP-1 phosphatase activity.

SHP-1 [2] = molecular target: T1, SHP-1; experiment: Phosphatase activity of SHP-1 immunoprecipitated from PLC5 cells, incubated with compound in vitro; assay type: biochemical; set-up: PLC5 protein extract was incubated with anti-SHP-1 antibody in immunoprecipitation buffer overnight; endogenous in cells; host or cells: PLC5 (PLC/PRF/5); conditions: SHP-1-containing PLC5 extract, 10 or 100 nmol/L, 30 min, 4° C.
Experimental: PLC5 protein extract was incubated with anti-SHP-1 antibody in immunoprecipitation buffer overnight. Protein G Sepharose 4 Fast flow (GE Healthcare Bio-Science) was added to each sample, followed by incubation for 3 hours at 4° C. with rotation. […] RediPlate 96 EnzChek Tyrosine Phosphatase Assay kit (R-22067) was used for SHP-1 activity assay (Molecular Probes).

HCC-bearing mice = experiment: Antitumor effect of SC-43 in HCC-bearing mice; conditions: mouse, in vivo
Experimental: SHP-1/STAT3-related signaling pathway acts as a vital target for the anti-tumor effect of SC-43. See FIG. 22 (A) the cytotoxicity of SC-43 in HCC cells, (B) the antitumor effect of SC-43 in HCC-bearing mice, (C) the activity of SHP-1 induced by SC-43, and (D) Western blot analysis of p-STAT3 and STAT3 in HCC cells treated by SC-43 (10 μM and 20 μM).

[3] = test system: PLC5/luc2 orthotopic tumors; experiment: HCC orthotopic model with PLC5/luc2 cells; assay type: in vivo, mice; conditions: 10 mg/kg/day orally
Experimental: All experimental procedures using these mice were done in accordance with protocols approved by the Institutional Laboratory Animal Care and Use Committee of National Taiwan University. Each mouse was inoculated within liver […] with 1×10^4 PLC5/luc cells suspended in 0.1 mL of serum-free medium containing 50% Matrigel (BD Biosciences). […] Tumor growth was monitored by non-invasive in vivo imaging system (IVIS) image system twice weekly.
(§1) We established an HCC orthotopic model using luc2-expressed PLC5 cells inoculated into liver of nude mice. […] To further correlate the molecular mechanism with the anticancer effect in vivo, p-STAT3 and SHP-1 activity in tumor extract from vehicle- and SC-treated mice was analyzed by immunoblotting. […] The pharmacokinetics of SC-43 was determined (FIG. 25E).

[4] = test system: p-STAT3, cyclin D1, survivin, Mc1-1; experiment: Western blot of STAT3-related proteins in HCC cells; assay type: cell-based; conditions: HCC cells, 24 h
Experimental: Cells were treated with various compounds at 5 and 10 μM for 24 h. Cell lysates were analyzed by western blot.
HCC cells treated with SC-43 (10 μM for 24 h) were collected with RIPA lysis buffer. Antibodies for immunoblotting such as cyclin D1 was purchased from Santa Cruz Biotechnology. Other antibodies such as survivin, phospho-STAT3 (Tyr705), STAT3, Mc1-1, SOCS1, and SOCS3 were from Cell Signaling.

[5] = Pharmacokinetics of SC-43; assay type: in vivo; conditions: compared with literature report for sorafenib
Experimental: as §1

HCC cells [6] = experiment: Apoptosis analysis by flow cytometry (sub-G1); assay type: cell-based; conditions: for apoptosis (sub-G1): HCC cells, 24 h
Outline: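 HCC cells treated with compounds, harvested, fixed in 75% ethanol and stained with 20 ug/ml propidium iodide, 30 min at 37° C in the dark. Sub-G1 population measured by flow cytometry as apoptotic fraction; mean ± SD.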

[7] = test system: MDAMB231, MDAMB468, MCF-7, HL-60, KG-1 and ML-1; experiment: Anti-proliferation in breast cancer and leukemia cell lines; assay type: cell-based; conditions: MDAMB231, MDAMB468, MCF-7, HL-60, KG-1, ML-1
Experimental: The Huh-7 HCC cell line was obtained from the Health Science Research Resources Bank (Osaka, Japan; JCRB0403). The PLC/PRF/5 (PLC5), Sk-Hep-1, and Hep3B cell lines were obtained from American Type Culture Collection (Manassas, Va.). The cells were maintained in DMEM supplemented with 10% FBS, 100 units/mL penicillin G, 100 μg/mL streptomycin sulfate and 25 μg/mL amphotericin B in a 37° C. humidified incubator in an atmosphere of 5% CO2 in air. Other cell lines, including breast cancer cells e.g. MDAMB231, MDAMB468, MCF-7, and leukemia cancer cells e.g. HL-60, KG-1 and ML-1 are also provided for the assays described below.
We also examed the effects of SC-1 and SC-43 in other cancer cell lines, including breast cancer cell lines e.g. MDAMB231, MDAMB468, MCF-7, and leukemia cancer cell lines e.g. HL-60, KG-1 and ML-1.

phospho-STAT3 (Tyr705) = experiment: Phospho-STAT3 (Tyr705) sandwich ELISA; assay type: cell-based; conditions: PLC5 cells
Experimental: A PathScan Phospho-Stat3 (Tyr705) Sandwich ELISA Kit was used for the detection of phospho-STAT3 (Cell Signaling, Danvers, Mass.). Cells were pre-treated with IL-6 1 ng/ml and then exposed with various compounds at 10 μM for 24 h. After incubation with cell lysates, both non-phospho- and phospho-Stat3 proteins are captured by the coated antibody. The expression of phospho-STAT3 was measured at 450 nm absorbance.
The decreased level of P-STAT3 induced by these derivatives was correlated with cell toxicity. In the other words, these derivatives induced cell death in part through inhibition of STAT3.
We also assayed the activation status of p-STAT3 by STAT3 ELISA. […] SC-1 or sorafenib-treated cell extracts were incubated with antibody against phosphorylated STAT3 at Y705. […] To evaluate the transcriptional activity, STAT3-binding region was cloned into Luc reporter. […] The firefly luciferase activity was evaluated and normalized by Renilla luciferase.
p-STAT3 activity: PLC5 cells treated with SC derivatives were collected in RIPA buffer and analyzed in p-STAT3 ELISA kit. The assay protocol follows the manufacturer.

PLC5 tumors = experiment: Subcutaneous PLC5 xenograft; assay type: in vivo, mice; conditions: 10 mg/kg/day orally
Experimental: All experimental procedures using these mice were done in accordance with protocols approved by the Institutional Laboratory Animal Care and Use Committee of National Taiwan University. Each mouse was inoculated s.c. in the dorsal flank with 1×10^6 PLC5 cells suspended in 0.1 mL of serum-free medium containing 50% Matrigel (BD Biosciences). When tumors reached 100 to 200 mm3, mice received SC-40 tosylate (10 or 20 mg/kg) orally once daily. Tumors were measured weekly using calipers, and their volumes were calculated using the following standard formula: width×length×height×0.52.
as §1

HCC cells [8] = experiment: cells
Excerpt: Points, mean; bars, SD (n=6).
Points, mean; bars, SD ([…]). […] The N-SH2 domain is in orange, the C-SH2 domain is in marine, the PTP domain is in hot pink, and the linkers between them are in gray. […] ELISA, enzyme-linked immunosorbent assay.

VEGFR1 = molecular target: T2, VEGFR1 (Homo sapiens, UniProt P17948); experiment: VEGFR1 activity in HUVEC cells; assay type: cell-based; conditions: 24 h
T2 construct: we tested the effect of SC-49 on the activity of VEGFR1 in HUVEC cells; endogenous in cells; host or cells: HUVEC
T2 sequence (P17948 27-1338): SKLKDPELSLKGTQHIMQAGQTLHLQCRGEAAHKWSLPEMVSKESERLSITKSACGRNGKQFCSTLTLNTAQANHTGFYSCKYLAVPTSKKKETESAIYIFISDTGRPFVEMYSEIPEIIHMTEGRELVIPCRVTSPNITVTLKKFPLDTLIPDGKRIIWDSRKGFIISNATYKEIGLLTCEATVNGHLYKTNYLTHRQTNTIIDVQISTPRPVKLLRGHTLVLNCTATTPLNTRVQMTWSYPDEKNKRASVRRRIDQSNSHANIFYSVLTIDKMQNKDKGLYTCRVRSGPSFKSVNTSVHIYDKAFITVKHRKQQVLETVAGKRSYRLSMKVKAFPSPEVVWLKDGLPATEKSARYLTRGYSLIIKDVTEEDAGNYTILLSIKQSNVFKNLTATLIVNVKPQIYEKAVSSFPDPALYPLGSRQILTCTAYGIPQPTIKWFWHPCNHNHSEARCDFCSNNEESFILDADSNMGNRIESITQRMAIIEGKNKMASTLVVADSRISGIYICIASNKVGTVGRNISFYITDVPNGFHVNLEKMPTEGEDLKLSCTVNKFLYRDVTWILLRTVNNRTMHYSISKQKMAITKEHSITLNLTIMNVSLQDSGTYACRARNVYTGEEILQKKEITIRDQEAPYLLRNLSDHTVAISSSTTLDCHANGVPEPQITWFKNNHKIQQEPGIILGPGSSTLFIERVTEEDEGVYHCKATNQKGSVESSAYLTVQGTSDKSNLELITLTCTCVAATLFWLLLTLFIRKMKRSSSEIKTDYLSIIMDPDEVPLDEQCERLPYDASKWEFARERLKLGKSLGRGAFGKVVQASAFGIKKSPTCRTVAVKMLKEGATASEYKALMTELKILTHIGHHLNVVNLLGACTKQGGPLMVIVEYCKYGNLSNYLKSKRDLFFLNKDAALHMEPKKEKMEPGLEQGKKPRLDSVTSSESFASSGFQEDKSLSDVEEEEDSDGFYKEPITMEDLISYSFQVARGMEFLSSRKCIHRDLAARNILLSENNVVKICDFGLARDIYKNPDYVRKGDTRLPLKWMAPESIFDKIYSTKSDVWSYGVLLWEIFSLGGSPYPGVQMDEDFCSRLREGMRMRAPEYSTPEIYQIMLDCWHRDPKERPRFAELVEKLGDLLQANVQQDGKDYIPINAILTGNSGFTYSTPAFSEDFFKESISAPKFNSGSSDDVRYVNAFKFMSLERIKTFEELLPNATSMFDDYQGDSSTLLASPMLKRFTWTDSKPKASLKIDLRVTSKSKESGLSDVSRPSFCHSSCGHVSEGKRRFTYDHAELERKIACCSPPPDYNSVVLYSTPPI
Excerpt: (§2) To further investigate the effect of SC-49 on angiogenesis, we tested the effect of SC-49 on the activity of VEGFR1 in HUVEC cells.

Huh-7 tumors = test system: Huh-7 tumors
Experimental: Male NCr athymic nude mice (5-7 weeks of age) were obtained from the National Laboratory Animal Center (Taipei, Taiwan). All experimental procedures using these mice were performed in accordance with protocols approved by National Taiwan University. […] Controls received vehicle (Chen K F et al. Cancer Res. 2008; 68:6698-6707).

p-STAT1 and p-STAT5 = experiment: Effect on p-STAT1 and p-STAT5; assay type: cell-based; conditions: indicated doses, 24 h
Excerpt: as §2

T1 sequence (P29350 whole entry): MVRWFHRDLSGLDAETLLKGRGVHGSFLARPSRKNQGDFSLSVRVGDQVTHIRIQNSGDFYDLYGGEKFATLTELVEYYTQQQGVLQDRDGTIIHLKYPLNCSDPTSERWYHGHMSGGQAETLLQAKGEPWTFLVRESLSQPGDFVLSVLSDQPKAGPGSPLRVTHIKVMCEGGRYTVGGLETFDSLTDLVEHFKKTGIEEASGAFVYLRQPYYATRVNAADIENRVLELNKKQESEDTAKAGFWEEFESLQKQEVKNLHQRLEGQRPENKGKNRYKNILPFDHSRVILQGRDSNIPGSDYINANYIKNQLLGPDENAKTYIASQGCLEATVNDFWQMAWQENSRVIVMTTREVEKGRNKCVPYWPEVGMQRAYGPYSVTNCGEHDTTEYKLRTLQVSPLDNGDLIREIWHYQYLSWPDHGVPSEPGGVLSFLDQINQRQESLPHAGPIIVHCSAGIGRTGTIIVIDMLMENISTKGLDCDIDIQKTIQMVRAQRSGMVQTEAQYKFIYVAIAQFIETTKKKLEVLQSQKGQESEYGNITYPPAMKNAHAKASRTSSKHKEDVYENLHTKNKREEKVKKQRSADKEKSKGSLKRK

Structure (SMILES): N#Cc1ccc(Oc2cccc(NC(=O)Nc3ccc(Cl)c(C(F)(F)F)c3)c2)cc1 [SC-43, 1-(3-(4-cyanophenoxyl)phenyl)-3-(4-chloro-3-(trifluoromethyl)phenyl)urea]
- phosphatase activity of recombinant SHP-1 (SHP-1 [1]): increase phosphatase activity of SHP-1 in vitro
- phosphatase activity of SHP-1 in vitro (SHP-1 [2]): increase phosphatase activity of SHP-1 in vitro
- tumor growth inhibition in HCC-bearing mice (HCC-bearing mice): significantly causes tumor growth inhibition in HCC-bearing mice
- anti-HCC effect and survival in orthotopic model [3]: had an evident anti-HCC effect and significant survival benefit
- p-STAT3 and STAT3-related proteins (Western blot) [4]: down-regulates phospho-STAT3-related signaling pathway in HCC; also recorded: shows better inhibition of p-STAT3-related signaling pathway than sorafenib; also recorded: revealed submicromolar inactivation of p-STAT3, relative to sorafenib
- stability in vivo (pharmacokinetics) [5]: exhibited a longer period of stability in vivo than that reported for sorafenib
- apoptosis (sub-G1) (HCC cells [6]): show significant anti-cancer effects in HCC cells
- apoptosis in sorafenib-resistant cells (HCC cells [6]; sorafenib-resistant HCC cells (SR1)): resulted in significant apoptosis in sorafenib-resistant cells at submicromolar concentrations
- growth of breast cancer and leukemia cell lines [7]: effective in inhibiting the growth of cancer cells
- p-STAT3 / STAT3 activity (phospho-STAT3 ELISA and luciferase reporter) (phospho-STAT3 (Tyr705)): induce strong inhibition of p-STAT3 activity; also recorded: showed more potent inhibition of the p-STAT3-related signaling pathway
- p-STAT3 and SHP-1 activity in PLC5 tumor lysate (PLC5 tumors): Down-regulation of p-STAT3 and elevation of SHP-1 activity
- average tumor size versus control mice at the end of treatment (PLC5 tumors; SC PLC5 tumor-bearing mice): less than half that of control mice
- viability of HCC cells / cytotoxicity (HCC cells [8]; 72 h): showed lower 50% inhibitory concentration, compared to sorafenib
- IC50 (HCC cells [8]; read-out: IC50, cytotoxicity in HCC cells): ~500 nM

Structure (SMILES): N#Cc1ccc(Oc2ccc(CNC(=O)Nc3ccc(Cl)c(C(F)(F)F)c3)cc2)cc1 [SC-49, 1-(4-chloro-3-(trifluoromethyl)phenyl)-3-(4-(4-cyanophenoxyl)benzyl)urea]
- phosphatase activity of SHP-1 in vitro (SHP-1 [2]): increase phosphatase activity of SHP-1 in vitro
- activity of VEGFR1 (VEGFR1): did not affect the activity of VEGFR1 in HUVEC cells
- Huh-7 tumor size / growth versus control (Huh-7 tumors; 10 mg/kg/day orally): significantly reduced the growth of the Huh-7 tumour
- body weight or toxicity (Huh-7 tumors; mouse, in vivo, po, 10 mg/kg/day): stable body weights
- SHP-1 activity in Huh-7 tumors (Huh-7 tumors; tumor extract): enhanced the activity of SHP-1 in Huh-7 tumours
- p-STAT3 in Huh-7 tumors (Huh-7 tumors; tumor extract, Western blot): down-regulated p-STAT3 in Huh-7 tumours
- p-STAT1 and p-STAT5 (p-STAT1 and p-STAT5): down-regulated both p-STAT1 and p-STAT5 in a dose dependent manner
- apoptosis (sub-G1) (HCC cells [6]): induced more apoptotic cell death than sorafenib
